Reference: patent publication US5008271A, “DC-88A derivatives” (Kyowa Hakko Kogyo Co., Ltd., priority 1988, dated 1991)
pIC50: −log10 of the molar value. Like-named read-outs stand apart in the source and are kept apart here.

Experiments:
dd strain male mice = test: Acute toxicity test (minimum lethal dose); format: in vivo; conditions: intraperitoneal, mortality observed for 14 days
Experimental: Using dd strain male mice weighing 20 ±l g, a test compound was intraperitoneally administered. MLD (the minimum lethal dose) was determined by observing the mortality for 14 days after administration.

HeLa S3 cells = test: Growth inhibition test using HeLa S3 cells; format: cell-based
Experimental: The pharmacological activity of Compound (I), Compound (II) and Compound (III) was determined by growth inhibition test using HeLa S3 cells.
Test on growth inhibition of HeLa S3 cells:
HeLa S3 cells diluted to 3×10^4 cells/ml with MEM medium containing 10% calf fetal serum and 2 mM glutamine were separately distributed by 0.1 ml each in each well of a 96 well microtiter plate.
After culturing at 37° C. overnight in a CO2 incubator, 0.05 ml each of a test sample appropriately diluted with MEM medium was added to each well.
After culturing the cells for 72 hours in the CO2 incubator, the culture supernatant was removed. After washing once with phosphate buffered physiological saline (PBS), 0.1 ml each of MEM medium containing 0.02% neutral red was added to each well and then cultured at 37° C. for an hour in the CO2 -incubator to stain the cells. After removing the culture supernatant, the cells were washed once with physiological saline, and the dye was extracted with 0.001 N HCl/30% ethanol. Absorbance at 550 nm of the extract was measured with a microplate reader. By comparing absorbance of extract of intact cells with that of the cells treated with a test compound in known concentrations IC50, i.e. the concentration which inhibited growth of the cells by 50% was determined.

various bacteria = conditions: against various bacteria; cited from earlier work
[1] = tested on: lymphocytic leukemia P388; conditions: lymphocytic leukemia P388, etc.; cited from earlier work
[2] = Homo sapiens, HeLa S3, 72 h, read-out: IC50 (concentration which inhibited growth of the cells by 50%), HeLa S3 cells, 72 hours, neutral red staining
[3] = Homo sapiens, HeLa S3 cells, 72 hours, neutral red staining, read-out: IC50 (concentration which inhibited growth of the cells by 50%)

Compound | Acute Toxicity (MLD), minimum lethal dose (dd strain male mice) [mg/kg] | pIC50 (HeLa S3 cells; [2]) | pIC50 (HeLa S3 cells; [3]) | also measured
COC(=O)C1(C)Nc2c(O[Si](C)(C)C(C)(C)C)cc3c(c2C1=O)C(CBr)CN3C(=O)c1cc2cc(OC)c(OC)c(OC)c2[nH]1 (stereo not drawn) [Compound 1] | 0.25 |  |  | 
COC(=O)C1(C)Nc2c(O)cc3c(c2C1O)C(CBr)CN3C(=O)c1cc2cc(OC)c(OC)c(OC)c2[nH]1 (stereo not drawn) [Compound 5] | 0.63 | 9.59 |  | 
COC(=O)C1(C)Nc2c(O)cc3c(c2C1O)C(CBr)CN3C(=O)c1cc2cc(OC)c(OC)c(OC)c2[nH]1 (stereo not drawn) [Compound 6] | 1.3 |  |  | pIC50 (HeLa S3 cells; read-out: IC50 (concentration which inhibited growth of the cells by 50%), HeLa S3 cells, 72 hours, neutral red staining): 9.70
COC(=O)C1(C)Nc2c(OC(C)=O)cc3c(c2C1=O)C(CBr)CN3C(=O)c1cc2cc(OC)c(OC)c(OC)c2[nH]1 (stereo not drawn) [Compound 7] | 0.063 |  |  | 
COC(=O)C1(C)Nc2c(O[Si](C)(C)C(C)(C)C)cc3c(c2C1OC(C)=O)C(CBr)CN3C(=O)c1cc2cc(OC)c(OC)c(OC)c2[nH]1 (stereo not drawn) [Compound 8] | 2.5 |  |  | 
COC(=O)C1(C)Nc2c(OC(=O)N(C)C)cc3c(c2C1=O)C(CBr)CN3C(=O)c1cc2cc(OC)c(OC)c(OC)c2[nH]1 (stereo not drawn) [Compound 13] | 2.5 |  |  | 
C=CCOC(=O)Oc1cc2c(c3c1NC(C)(C(=O)OC)C3=O)C(CBr)CN2C(=O)c1cc2cc(OC)c(OC)c(OC)c2[nH]1 (stereo not drawn) [Compound 14] | 0.5 | 9.85 |  | 
CCCCCCCCCCCC(=O)Oc1cc2c(c3c1NC(C)(C(=O)OC)C3=O)C(CBr)CN2C(=O)c1cc2cc(OC)c(OC)c(OC)c2[nH]1 (stereo not drawn) [Compound 15] | 0.5 | 10.38 |  | 
CCOC(=O)C1(C)Nc2c(O)cc3c(c2C1=O)C(CBr)CN3C(=O)c1cc2cc(OC)c(OC)c(OC)c2[nH]1 (stereo not drawn) [Compound 17] |  |  | 10.72 | 
C=CCOC(=O)C1(C)Nc2c(O)cc3c(c2C1=O)C(CBr)CN3C(=O)c1cc2cc(OC)c(OC)c(OC)c2[nH]1 (stereo not drawn) [Compound 19] |  |  | 9.03 | 
COc1cc2cc(C(=O)N3CC(CBr)c4c3cc(O)c3c4C(=O)C(C)(C(=O)OCc4ccccc4)N3)[nH]c2c(OC)c1OC (stereo not drawn) [Compound 21] |  |  | 8.72 | 
C=CCC1(C)Nc2c(O)cc3c(c2C1=O)C(CBr)CN3C(=O)c1cc2cc(OC)c(OC)c(OC)c2[nH]1 (stereo not drawn) [Compound 25] |  |  | 9.54 | 
COc1cc2cc(C(=O)N3CC(CBr)c4c3cc(O)c3c4C(O)C(C)(COC(C)=O)N3)[nH]c2c(OC)c1OC (stereo not drawn) [Compound 27] |  |  | 8.48 | 
COC(=O)C1(C)NC2=C(C1=O)C13CC1CN(C(=O)c1cc4cc(OC)c(OC)c(OC)c4[nH]1)C3=CC2=O (stereo not drawn) [DC-88A] |  | 10.41 |  | antibacterial activity (various bacteria): exhibits not only an antibacterial activity against various bacteria; antitumor activity against lymphocytic leukemia P388 [1]: an antitumor activity against lymphocytic leukemia P388, etc.
COC(=O)C1(C)Nc2c(O)cc3c(c2C1=O)C(CBr)CN3C(=O)c1cc2cc(OC)c(OC)c(OC)c2[nH]1 (stereo not drawn) [DC-89B2, reference compound] |  | 10.85 |  | 
